Laboratory results from article PMC8397425, “A Strategy to Conjugate Bioactive Fragments to Cytotoxic Diiron Bis(cyclopentadienyl) Complexes” (Organometallics, 2021).
“And” between values parts separate entries of the source, which are not always exact repeats. Equal entries are not always repeated.

Legend:
[1] = Octanol–water partition coefficient (shake-flask, UV–vis); format: physicochemical; details: T = 21 °C
Procedure: The solubility of the complexes in D2O was assessed using ^1H NMR spectroscopy (see Table 1 and the Experimental Section for details). […] Data from the literature for the related nonfunctionalized complexes [2′,3′]CF3SO3 are compiled in Table 1 for comparison.[11] The octanol–water partition coefficients (Log Pow) were measured using a UV–vis method and fall within the −0.2 to +1.2 range (Table 1). […] For instance, Log Pow values of 1.07 and 0.65 are obtained for the geometric isomers [9]CF3SO3 and [10]CF3SO3, respectively. […]
Determination of partition coefficients (Log P ow)
Partition coefficients ( Pow; IUPAC: K D partition constant, 7,8 defined as Pow = corg/caq, where corg and caq are the molar concentrations of the selected compound in the organic and aqueous phases, respectively, were determined by the shake-flask method and UV-Vis measurements. 9 Values of Log Pow for diiron complexes are compiled in Table 2. All the operations were carried out at 21±1 °C. De -ionised water and 1-octanol were mixed and vigorously stirred for 24 hours at room temperature to allow saturation of both phases, then separated by centrifugation and used for the following experiments. A solution of the selected Fe compound in the organic phase (V = 5 mL) was prepared and its UV-Vis spectrum was recorded. An aliquot of the solution (Vorg = 1.5 mL) was then transferred into a test tube and the aqueous phase (Vorg = Vaq = 1.5 mL) was added. The mixture was vigorously stirred for 20 minutes and the resulting emulsion was centrifuged (5000 rpm, 10’). […]
the organic phase was recorded. The procedure was repeated three times for each compound. The partition coefficient was then calculated as PPow = AorgA0,org − Aorg, where A0,org and Aorg are the absorbance values in the organic phase, respectively before and after mixing with the aqueous phase. 9 UV-Vis measurements were carried out using 1 cm PMMA cuvettes. The wavelength of the maximum absorption of each compound was used for UV-Vis quantification.

[2] = tested on: guanosine 5′-monophosphate (disodium salt, Na2[GMP]); experiment: Reaction with model nucleotide GMP (mass spectrometry); details: D2O/CD3OD, 1 equiv Na2[GMP], 24 h at 37 °C
Procedure: The ability of [4]CF3SO3 and [9]CF3SO3 to interact with natural DNA was studied using the ethidium bromide (EB) exchange test (Figure 6), with the concentration of the complexes beingin the 1.5–124 μM range for [4]CF3SO3 and 1.4–135 μM for [9]CF3SO3. Blank experiments were carried out with the two bioactive molecules and also with DMSO to check for solvent/dilution effects. […] However, EB exchange titrations are suitable to recognize fast noncovalent binding events, but not subsequent slow covalent binding. Therefore, since chlorambucil is a DNA-alkylating agent, we studied the possible reaction of [9]CF3SO3 with the nucleotide guanosine 5′-monophosphate (disodium salt, Na2[GMP]; see Figure 4) as a model for DNA binding. Complex [9]CF3SO3 was incubated with a D2O/CD3OD mixture containing GMP for 24 h at 37 °C.
In order to analyze the interaction with a model nucleotide, a freshly prepared solution of [9]CF3SO3 (2 mg) in D2O/CD3OD (5/3 v/v) was treated with 1 equiv of anhydrous Na2[GMP]. The resulting mixture was maintained at 37 °C for 24 h, and then the final solution was filtered in order to remove some solid and analyzed by mass spectrometry. HPLC-MS(+): m/z found 1087.2451 [9^GMP + Na]^+, calcd for C47H53Fe2N8NaO12P 1087.2117; m/z found 555.0666 [9^GMP + 2Na]^2+, calcd for C47H53Fe2N8Na2O12P 555.1008. The isotopic patterns fit well the calculated patterns.

[3] = target: T1, COX-2 enzyme (Homo sapiens, UniProt P35354); experiment: COX-2 enzyme inhibition assay (fluorimetric); format: biochemical; details: residual enzyme activity, 25 °C, pH 8, mean ± SD
T1 construct: purchased Cayman Chemical Company
T1 sequence (P35354 18-604): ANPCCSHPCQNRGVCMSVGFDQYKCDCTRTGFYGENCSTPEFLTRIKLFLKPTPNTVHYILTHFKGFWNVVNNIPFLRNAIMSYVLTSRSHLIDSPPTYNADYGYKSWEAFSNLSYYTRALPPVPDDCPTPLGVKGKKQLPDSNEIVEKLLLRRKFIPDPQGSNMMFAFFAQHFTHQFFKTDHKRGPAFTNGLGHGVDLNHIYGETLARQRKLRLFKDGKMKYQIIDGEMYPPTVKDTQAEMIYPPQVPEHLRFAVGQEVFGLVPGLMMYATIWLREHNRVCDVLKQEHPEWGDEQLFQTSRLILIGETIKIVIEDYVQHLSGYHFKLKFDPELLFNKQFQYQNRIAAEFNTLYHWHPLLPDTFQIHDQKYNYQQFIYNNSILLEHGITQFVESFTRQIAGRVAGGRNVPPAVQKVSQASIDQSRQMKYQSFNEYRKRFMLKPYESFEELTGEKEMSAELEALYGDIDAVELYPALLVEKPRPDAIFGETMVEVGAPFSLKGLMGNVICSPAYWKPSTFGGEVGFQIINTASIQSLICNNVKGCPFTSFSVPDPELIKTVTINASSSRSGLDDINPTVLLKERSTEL
Procedure: Next, the possible role of the bioactive fragment in the complexes was studied.
The IC50 value was obtained using GraphPad Prism 7 software. All of the inhibitor assays were performed at least in triplicate.

With “[Fe2Cp2(CO)(μ-CO){μ-η^1:η^3-Cγ(3-C6H4NHC(=O)(CH2)3C6H4N(CH2CH2Cl)2)CβHCαNMe2}]CF3SO3 [[9]CF3SO3]” the “Log Pow” value [1] was 1.07 and 1.07 ± 0.05 and the “conversion into the neutral GMP adduct 9^GMP” value [2] was “almost complete conversion”.
With “[Fe2Cp2(CO)(μ-CO){μ-η^1:η^3-Cγ(3-C6H4OC(=O)C6H4OC(=O)Me)CβHCαNMe(Xyl)}]CF3SO3 [[4]CF3SO3]” the “Log Pow” value [1] was 1.06 ± 0.04 and the IC50 [3] was 30 ± 3 µM.
